Experiments:
[1] = test system: CD69 by B lymphocytes in human whole blood activated with goat F(ab')2 anti-human IgM; test: CD69 Whole Blood Assay (CD69 Hu Blood FACS); format: cell-based; settings: Lymphocyte, CD69 positive of CD20 positive cells
Method: CD69 is a type II C-type lectin involved in lymphocyte migration and cytokine secretion.
Human blood is obtained from healthy volunteers, with the following restrictions: 1 week drug-free, non-smokers. Blood (approximately 20 mls to test 8 compounds) is collected by venipuncture into Vacutainer® (Becton, Dickinson and Co.) tubes with sodium heparin.
Solutions of Formula I compounds at 10 mM in DMSO are diluted 1:10 in 100% DMSO, then are diluted by three-fold serial dilutions in 100% DMSO for a ten point dose-response curve. The compounds are further diluted 1:10 in PBS and then an aliquot of 5.5 μl of each compound is added in duplicate to a 2 ml 96-well plate; 5.5 μl of 10% DMSO in PBS is added as control and no-stimulus wells. Human whole blood—HWB (100 μl) is added to each well. After mixing the plates are incubated at 37° C., 5% CO2, 100% humidity for 30 minutes. Goat F(ab′)2 anti-human IgM (10 μl of a 500 μg/ml solution, 50 μg/ml final) is added to each well (except the no-stimulus wells) with mixing and the plates are incubated for an additional 20 hours. At the end of the 20 hour incubation, samples are incubated with fluorescent labeled antibodies for 30 minutes, at 37° C., 5% CO2, 100% humidity. Include induced control, unstained and single stains for compensation adjustments and initial voltage settings. Samples are then lysed with PharM Lyse™ (BD Biosciences Pharmingen) according to the manufacturer's instructions. Samples are then transferred to a 96 well plate suitable to be run on the BD Biosciences HTS 96 well system on the LSRII machine. Data acquired and Mean Fluorescence Intensity values were obtained using BD Biosciences DIVA Software. Results are initially analyzed by FACS analysis software (Flow Jo).

[2] = target: T1, full length human wildtype Btk (Homo sapiens, UniProt Q06187); test: Biochemical Btk Assay (BTK LC3K)
T1 construct: V5 (C); 6xHis (C); made in house; host or cells: Sf9 insect cells (baculovirus, pFastBac)
Method: A generalized procedure for a standard biochemical Btk, Kinase Assay that can be used to test Formula I compounds is as follows. A master mix minus Btk enzyme is prepared containing 1× Cell Signaling kinase buffer (25 mM Tris-HCl, pH 7.5, 5 mM beta-glycerophosphate, 2 mM dithiothreitol, 0.1 mM Na3VO4, 10 mM MgCl2), 0.5 μM Promega PTK Biotinylated peptide substrate 2, and 0.01% BSA. A master mix plus Btk enzyme is prepared containing 1× Cell Signaling kinase buffer, 0.5 μM (micromolar) PTK Biotinylated peptide substrate 2, 0.01% BSA, and 100 ng/well (0.06 mU/well) Btk enzyme. Btk enzyme is prepared as follows: full length human wildtype Btk (accession number NM-000061) with a C-terminal V5 and 6×His tag was subcloned into pFastBac® vector (Invitrogen/Life Technologies) for making baculovirus carrying this epitope-tagged Btk. […] Passage 3 virus is used to infect Sf9 cells to overexpress the recombinant Btk protein. The Btk protein is then purified to homogeneity using Ni-NTA column. […] A solution of 200 μM ATP is prepared in water and adjusted to pH 7.4 with 1N NaOH. A quantity of 1.25 μL (microliter) of compounds in 5% DMSO is transferred to a 96-well ½ area Costar polystyrene plate. Compounds are tested singly and with an 11-point dose-responsive curve (starting concentration is 10 μM; 1:2 dilution). A quantity of 18.75 μL of master mix minus enzyme (as a negative control) and master mix plus enzyme is transferred to appropriate wells in 96-well ½ area costar polystyrene plate. 5 μL of 200 μM ATP is added to that mixture in the 96-well ½ area Costar polystyrene plate for final ATP concentration of 40 μM. The reaction is allowed to incubate for 1 hour at room temperature. The reaction is stopped with Perkin Elmer 1× detection buffer containing 30 mM EDTA, 20 nM SA-APC, and 1 nM PT66 Ab. […] IC50 values are subsequently calculated. Alternatively, the Lanthascreen assay can be used to evaluate Btk activity through quantification of its phosphorylated peptide product. The FRET (Fluorescence Resonance Energy Transfer) that occurs between the fluorescein on the peptide product and the terbium on the detection antibody decreases with the addition of inhibitors of Btk that reduce the phosphorylation of the peptide. In a final reaction volume of 25 uL, Btk (h) (0.1 ng/25 ul reaction) is incubated with 50 mM Hepes pH 7.5, 10 mM MgCl2, 2 mM MnCl2, 2 mM DTT, 0.2 mM NaVO4, 0.01% BSA, and 0.4 uM fluorescein poly-GAT. […] After incubation for 60 minutes at room temperature, the reaction is stopped by the addition of a final concentration of 2 nM Tb-PY20 detection antibody in 60 mM EDTA for 30 minutes at room temperature.

T1 sequence (Q06187 whole entry): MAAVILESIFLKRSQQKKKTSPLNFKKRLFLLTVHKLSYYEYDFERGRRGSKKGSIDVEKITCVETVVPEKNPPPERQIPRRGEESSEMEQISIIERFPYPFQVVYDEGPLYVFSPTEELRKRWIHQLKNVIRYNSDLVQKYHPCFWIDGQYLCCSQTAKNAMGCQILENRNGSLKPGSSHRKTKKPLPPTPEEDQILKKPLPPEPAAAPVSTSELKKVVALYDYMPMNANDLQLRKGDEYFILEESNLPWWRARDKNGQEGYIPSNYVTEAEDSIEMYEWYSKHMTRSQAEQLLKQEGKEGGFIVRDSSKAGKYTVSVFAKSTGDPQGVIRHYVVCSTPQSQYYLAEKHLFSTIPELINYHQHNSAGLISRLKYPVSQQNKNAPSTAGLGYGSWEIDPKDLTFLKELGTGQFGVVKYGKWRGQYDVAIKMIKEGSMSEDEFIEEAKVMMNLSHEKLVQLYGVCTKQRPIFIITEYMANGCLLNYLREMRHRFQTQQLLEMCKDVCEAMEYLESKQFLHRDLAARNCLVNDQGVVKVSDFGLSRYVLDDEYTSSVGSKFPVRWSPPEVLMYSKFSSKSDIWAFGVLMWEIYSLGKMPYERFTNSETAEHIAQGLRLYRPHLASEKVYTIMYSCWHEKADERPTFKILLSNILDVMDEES

SMILES | IC50 ([1]; Table 2, anti-IgM stimulation) [nM] | Ki ([2]; Table 2) [nM] | IC50 ([1]; Table 1, anti-IgM stimulation) [nM] | Ki ([2]; Table 1) [nM]
Cn1cc(-c2ccnc(-n3ncc4cc(C(C)(C)C)cc(F)c4c3=O)c2CO)cc(NC(=O)[C@H]2CC23CC3)c1=O (single isomer, unassigned) [Compound 162] | 786 | 5 |  | 
C[C@@H]1C[C@H]1C(=O)Nc1cc(-c2ccnc(N3CCn4c(cc5c4CC(C)(C)C5)C3=O)c2CO)cn(C)c1=O [Compound 138, (1R,2R)—N-[5-[2-(7,7-dimethyl-4-oxo-1,2,6,8-tetrahydrocyclopenta[3,4]pyrrolo[3,5-b]pyrazin-3-yl)-3-(hydroxymethyl)-4-pyridyl]-1-methyl-2-oxo-3-pyridyl]-2-methyl-cyclopropanecarboxamide] | 2600 | 43.8 |  | 
Cn1cc(-c2ccnc(N3CCc4c(cc5n4CC(C)(C)C5)C3=O)c2CO)cc(NC(=O)C2CC2)c1=O [Compound 137, N-[5-[2-(7,7-dimethyl-4-oxo-1,2,6,8-tetrahydropyrido[3,4-b]pyrrolizin-3-yl)-3-(hydroxymethyl)-4-pyridyl]-1-methyl-2-oxo-3-pyridyl]cyclopropanecarboxamide] | 616 | 28.5 |  | 
Cn1cc(-c2cc(F)cc(N3CCn4c(cc5c4CC(C)(C)C5)C3=O)c2CO)cc(NC(=O)C2CC2)c1=O [Compound 130, N-[5-[3-(7,7-dimethyl-4-oxo-1,2,6,8-tetrahydrocyclopenta[3,4]pyrrolo[3,5-b]pyrazin-3-yl)-5-fluoro-2-(hydroxymethyl)phenyl]-1-methyl-2-oxo-3-pyridyl]cyclopropanecarboxamide] | 35 | 1.29 |  | 
Cn1cc(-c2cccc(N3CCc4c(cc5n4CCCC5)C3=O)c2CO)cc(NC(=O)C2CC2)c1=O [Compound 139, N-[5-[2-(hydroxymethyl)-3-(1-oxo-3,4,6,7,8,9-hexahydropyrido[3,4-b]indolizin-2-yl)phenyl]-1-methyl-2-oxo-3-pyridyl]cyclopropanecarboxamide] | 689 | 7.8 |  | 
Cc1cc(C)n(CC(=O)Nc2cc(-c3ccnc(N4CCn5c(cc6c5CC(C)(C)C6)C4=O)c3CO)cn(C)c2=O)n1 [Compound 108, N-[5-[2-(7,7-dimethyl-4-oxo-1,2,6,8-tetrahydrocyclopenta[3,4]pyrrolo[3,5-b]pyrazin-3-yl)-3-(hydroxymethyl)-4-pyridyl]-1-methyl-2-oxo-3-pyridyl]-2-(3,5-dimethylpyrazol-1-yl)acetamide] |  |  | 2400 | 51.6
Cc1cc(C(=O)Nc2cc(-c3ccnc(N4CCn5c(cc6c5CC(C)(C)C6)C4=O)c3CO)cn(C)c2=O)nn1C [Compound 112, N-[5-[2-(7,7-dimethyl-4-oxo-1,2,6,8-tetrahydrocyclopenta[3,4]pyrrolo[3,5-b]pyrazin-3-yl)-3-(hydroxymethyl)-4-pyridyl]-1-methyl-2-oxo-3-pyridyl]-1,5-dimethyl-pyrazole-3-carboxamide] |  |  | > 5800 | > 500
Cn1cc(-c2ccnc(N3CCc4c(sc5c4CC(C)(C)C5)C3=O)c2CO)cc(NC(=O)C2CC2)c1=O [Compound 131, N-[5-[2-(7,7-dimethyl-4-oxo-1,2,6,8-tetrahydrocyclopenta[3,4]thieno[1,3-c]pyridin-3-yl)-3-(hydroxymethyl)-4-pyridyl]-1-methyl-2-oxo-3-pyridyl]cyclopropanecarboxamide] | 240 | 7.06 |  | 
CN1CC[C@@]2(C[C@H]2C(=O)Nc2cc(-c3ccnc(-n4ncc5cc(C(C)(C)C)cc(F)c5c4=O)c3CO)cn(C)c2=O)C1 (single isomer, unassigned) [Compound 175] | > 4800 | 7.6 |  | 
Cn1cc(-c2ccnc(N3CCn4c(cc5c4CC(C)(C)C5)C3=O)c2CO)cc(NC(=O)c2ccc(N3CCCC3)nc2)c1=O [Compound 113, N-[5-[2-(7,7-dimethyl-4-oxo-1,2,6,8-tetrahydrocyclopenta[3,4]pyrrolo[3,5-b]pyrazin-3-yl)-3-(hydroxymethyl)-4-pyridyl]-1-methyl-2-oxo-3-pyridyl]-6-pyrrolidin-1-yl-pyridine-3-carboxamide] |  |  | > 3500 | 77
CCOC1C[C@@H]1C(=O)Nc1cc(-c2ccnc(N3CCn4c(cc5c4CC(C)(C)C5)C3=O)c2CO)cn(C)c1=O (mixture of isomers) [Compound 145, (1S)—N-[5-[2-(7,7-dimethyl-4-oxo-1,2,6,8-tetrahydrocyclopenta[3,4]pyrrolo[3,5-b]pyrazin-3-yl)-3-(hydroxymethyl)-4-pyridyl]-1-methyl-2-oxo-3-pyridyl]-2-ethoxy-cyclopropanecarboxamide] | 636 | 11 |  | 
Cn1cc(-c2ccnc(N3CCn4c(cc5c4CC(C)(C)C5)C3=O)c2CO)cc(NC(=O)[C@H]2CC23CC3)c1=O (single isomer, unassigned) [Compound 141] | 1600 | 5.8 |  | 
CN(C)C(=O)C1C[C@@H]1C(=O)Nc1cc(-c2ccnc(-n3ncc4cc(C(C)(C)C)cc(F)c4c3=O)c2CO)cn(C)c1=O (single isomer, unassigned) [Compound 171, N2-[5-[2-(6-tert-butyl-8-fluoro-1-oxo-phthalazin-2-yl)-3-(hydroxymethyl)-4-pyridyl]-1-methyl-2-oxo-3-pyridyl]-N1,N1-dimethyl-cyclopropane-1,2-dicarboxamide] | > 4800 | 91.5 |  | 
CN1CCC2(CC1)C[C@@H]2C(=O)Nc1cc(-c2ccnc(-n3ncc4cc(C(C)(C)C)cc(F)c4c3=O)c2CO)cn(C)c1=O (single isomer, unassigned) [Compound 166] | 1600 | 5.4 |  | 
Cn1cc(-c2cc(F)cc(N3CCc4c(cc5n4CC(C)(C)C5)C3=O)c2CO)cc(NC(=O)[C@@H]2C[C@@H]2F)c1=O [Compound 168] | 157 | 1 |  | 
Cn1cc(-c2ccnc(-c3nc4ccc(C(C)(C)C)cc4n3C)c2CO)cc(NC(=O)C2CC2)c1=O [Compound 160, N-[5-[2-(6-tert-butyl-1-methyl-benzimidazol-2-yl)-3-(hydroxymethyl)-4-pyridyl]-1-methyl-2-oxo-3-pyridyl]cyclopropanecarboxamide] | > 3500 | 25.7 |  | 
Cn1cc(-c2ccnc(N3CCn4c(cc5c4CC(C)(C)C5)C3=O)c2CO)cc(NC(=O)CN2CCOCC2)c1=O [Compound 105, N-[5-[2-(7,7-dimethyl-4-oxo-1,2,6,8-tetrahydrocyclopenta[3,4]pyrrolo[3,5-b]pyrazin-3-yl)-3-(hydroxymethyl)-4-pyridyl]-1-methyl-2-oxo-3-pyridyl]-2-morpholino-acetamide] |  |  | > 5000 | > 55.6
Cn1cc(-c2ccnc(N3CCc4cc(OC(F)F)cc(F)c4C3=O)c2CO)cc(NC(=O)C2CC2)c1=O [Compound 144, N-[5-[2-[6-(difluoromethoxy)-8-fluoro-1-oxo-3,4-dihydroisoquinolin-2-yl]-3-(hydroxymethyl)-4-pyridyl]-1-methyl-2-oxo-3-pyridyl]cyclopropanecarboxamide] | > 5400 | 234 |  | 

Reference: US9326985B2, “Heteroaryl pyridone and aza-pyridone amide compounds” (Genentech, Inc., priority 2013, dated 2016)
